The values that follow come from US20230272465A1, “Systems and Methods to Enhance RNA Transcription and Uses Thereof” (The Board of Trustees of the Leland Stanford Junior …, priority 2020, published 2023).

Common to all, as to assay type: biochemical
Assay [1] addresses T1, T7 RNA polymerase (Escherichia phage T7, UniProt P00573). In words: Real-time RNA transcription reaction with T7 polymerase (fluorescence, TECAN plate reader). As to conditions: 10 mM VRC, room temperature (~20° C.), 9000 seconds, FIG. 1A. The procedure:
Methods: A series of standard RNA transcription reactions were performed using T7 polymerase spiked with 0 mM, 0.1 mM, 1 mM, and 10 mM VRC. The reaction was performed at room temperature (˜20° C.) for 9000 seconds in a TECAN plate reader. Reaction yield was measured in reach reaction by measuring fluorescence in real-time using the TECAN plate reader.

Assay [2] deals with T1, T7 RNA polymerase. In words: Gel electrophoresis of T7 transcription reaction products. The conditions noted are these: 0.1 mM, 1 mM, 10 mM VRC versus 0 mM control; FIG. 3. As to the method:
Methods: A series of standard RNA transcription reactions were performed using T7 polymerase spiked with 0 mM, 0.1 mM, 1 mM, and 10 mM VRC. Post-incubation, the contents of each reaction were electrophoresed on a gel to qualitatively identify reaction product sizes.

In assay [3] the target is T1, T7 RNA polymerase. In words: RNA yield after post-reaction clean-up, T7 polymerase transcription (NanoDrop UV-Vis). As to conditions: 37° C., 4 hours, FIG. 2. The procedure:
Methods: A series of standard RNA transcription reactions were performed using T7 polymerase spiked with 0 mM, 0.1 mM, 1 mM, and 10 mM VRC. The reaction was performed at 37° C. for 4 hours in a thermocycler. A post-reaction clean-up was used to remove any reagents, including enzymes, NTPs, buffers. The reaction was quantified using a NanoDrop UV-Vis spectrometer.

The next assay concerns the target T2, SP6 RNA polymerase (Enterobacteria phage SP6, UniProt P06221).
T2 sequence (P06221 1-874): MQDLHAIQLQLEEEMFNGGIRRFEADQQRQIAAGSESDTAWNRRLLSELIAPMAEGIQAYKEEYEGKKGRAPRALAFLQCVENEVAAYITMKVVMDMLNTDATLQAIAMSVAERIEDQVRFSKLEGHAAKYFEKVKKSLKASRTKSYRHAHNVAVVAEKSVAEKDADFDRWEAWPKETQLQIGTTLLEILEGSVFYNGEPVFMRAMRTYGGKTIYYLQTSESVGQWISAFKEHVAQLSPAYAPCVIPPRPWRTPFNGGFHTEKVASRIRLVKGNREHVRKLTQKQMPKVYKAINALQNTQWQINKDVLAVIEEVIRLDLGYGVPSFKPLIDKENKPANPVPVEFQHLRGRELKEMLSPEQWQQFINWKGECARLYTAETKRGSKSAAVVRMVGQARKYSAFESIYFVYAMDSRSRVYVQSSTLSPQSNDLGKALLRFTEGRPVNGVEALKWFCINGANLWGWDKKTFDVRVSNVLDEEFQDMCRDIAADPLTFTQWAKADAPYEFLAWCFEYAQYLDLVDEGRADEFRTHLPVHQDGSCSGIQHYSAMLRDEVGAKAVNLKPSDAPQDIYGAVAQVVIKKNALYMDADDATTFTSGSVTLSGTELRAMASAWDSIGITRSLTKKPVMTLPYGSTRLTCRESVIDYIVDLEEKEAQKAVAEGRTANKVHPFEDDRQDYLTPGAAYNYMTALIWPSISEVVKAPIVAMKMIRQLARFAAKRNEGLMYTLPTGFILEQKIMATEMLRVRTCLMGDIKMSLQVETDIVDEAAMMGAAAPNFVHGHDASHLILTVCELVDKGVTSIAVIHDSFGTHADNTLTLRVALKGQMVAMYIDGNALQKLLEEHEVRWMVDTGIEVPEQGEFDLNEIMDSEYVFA
In words: Real-time monitoring of SP6 RNA polymerase transcription reaction. The conditions noted are these: FIG. 1B. The procedure:
Turning to FIGS. 1A-1B, exemplary data of RNA yield measured from real time monitoring of RNA transcription reactions in accordance with certain embodiments are illustrated. In particular, FIG. 1A illustrates exemplary T7 RNA polymerase transcription reaction embodiments using 0.1 mM, 1 mM, and 10 mM concentrations of VRC against a 0 mM control.
However, FIG. 1B illustrates exemplary SP6 RNA polymerase transcription reaction embodiments using 0.1 mM, 1 mM, and 10 mM concentrations of VRC against a 0 mM control.

“Also recorded” adds a separate entry of the source.

T1 sequence (P00573 whole entry): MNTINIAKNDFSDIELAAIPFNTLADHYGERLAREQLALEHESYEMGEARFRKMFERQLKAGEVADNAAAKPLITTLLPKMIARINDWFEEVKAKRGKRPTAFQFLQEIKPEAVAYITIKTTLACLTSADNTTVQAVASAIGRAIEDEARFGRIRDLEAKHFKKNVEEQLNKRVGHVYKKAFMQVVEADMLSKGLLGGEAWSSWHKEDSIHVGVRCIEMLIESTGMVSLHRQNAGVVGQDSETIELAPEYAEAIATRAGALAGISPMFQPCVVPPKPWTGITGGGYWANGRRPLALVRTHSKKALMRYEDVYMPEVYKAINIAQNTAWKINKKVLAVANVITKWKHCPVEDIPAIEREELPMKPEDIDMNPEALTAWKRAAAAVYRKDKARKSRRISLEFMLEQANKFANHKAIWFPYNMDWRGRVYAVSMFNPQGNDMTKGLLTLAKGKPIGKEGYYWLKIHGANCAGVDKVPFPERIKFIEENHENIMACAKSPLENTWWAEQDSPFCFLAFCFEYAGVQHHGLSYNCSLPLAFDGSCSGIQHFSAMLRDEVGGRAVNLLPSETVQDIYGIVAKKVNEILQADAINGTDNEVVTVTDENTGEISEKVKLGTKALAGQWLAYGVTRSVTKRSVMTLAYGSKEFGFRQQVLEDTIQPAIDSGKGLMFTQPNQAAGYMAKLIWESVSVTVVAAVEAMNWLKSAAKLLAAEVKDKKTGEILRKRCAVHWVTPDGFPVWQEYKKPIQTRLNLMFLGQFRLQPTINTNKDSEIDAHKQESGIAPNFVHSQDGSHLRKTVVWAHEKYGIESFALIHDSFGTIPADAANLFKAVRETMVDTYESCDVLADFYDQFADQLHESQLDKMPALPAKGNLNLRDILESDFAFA

With ribonucleoside vanadyl complex [VRC], the “increase in RNA yield over 0 mM control” value on T7 RNA polymerase [1] was roughly 1.5 fold; at T7 RNA polymerase [3] (0.1 mM VRC), “approximately 2.3 fold”; on T7 RNA polymerase [3] (1 mM VRC), “approximately 1.7 fold”; on T7 RNA polymerase [3] (10 mM VRC), “approximately 1.5 fold”. In addition, at T7 RNA polymerase [2], the “reaction product sizes / degradation products on gel” value is reported as “no degradation of products; also recorded: no discernable differences in product sizes”. Besides, the “RNA yield versus 0 mM control” value at SP6 RNA polymerase (0.1 mM VRC) is “no advantage in yield over the control”; on SP6 RNA polymerase (1 mM VRC) it was “inhibition of SP6 RNA polymerase”; at SP6 RNA polymerase (10 mM VRC), “inhibition of SP6 RNA polymerase”.
